“And” between values parts separate entries of the source, which are not always exact repeats. Equal values may be shown once. Read-outs that look alike come from different tables or passages of the source.

Data set [1] deals with SARS-CoV-2. In words: microbe, parasite or virus in culture. The class given is cell-based.
The test system of a further data set is Vero cell lines. In words: Cell viability of Vero cells in the SARS-CoV-2 inhibition experiment (Example 2).
For data set [2], the system named is SARS-CoV-2. Put plainly: microbe, parasite or virus in culture. The class given is cell-based. To be noted: Severe acute respiratory syndrome coronavirus 2, read-out: SARS-CoV-2 virus 50% inhibitory ability (IC50 value); VERO cells infected at MOI 0.1 for one hour, then drug; culture fluid after 48 hours, qRT-PCR. For orientation: Quantitative PCR measures a nucleic acid by following its amplification.

The nature of data set [3]: Cell viability of VERO cells by WST-1 assay (Example 3). Particulars: African green monkey. In general terms: Tetrazolium dyes change colour on reduction, which living cells bring about.
Setting [4] is: Severe acute respiratory syndrome coronavirus 2, Vero, 24 h, concentration 25 uM, Vero cells, 24 h, read-out: SARS-CoV-2 virus inhibitory ability (%, average ± standard deviation).
Setting [5] is: Severe acute respiratory syndrome coronavirus 2, Vero, 24 h, concentration 50 uM, Vero cells, 24 h, read-out: SARS-CoV-2 virus inhibitory ability (%, average ± standard deviation).
[6] abbreviates: Severe acute respiratory syndrome coronavirus 2, Vero, 24 h, read-out: SARS-CoV-2 virus 50% inhibitory ability (IC50 value), Vero cells dosed while being infected, 24 h, compounds.
Setting [7] is: Severe acute respiratory syndrome coronavirus 2, Vero, 24 h, read-out: SARS-CoV-2 virus 50% inhibitory ability (IC50 value).

In general, IC50 refers to the concentration needed to halve the response being measured. `Cc1cccc(C)c1OCC(=O)N[C@@H](Cc1ccccc1)[C@@H](O)C[C@H](Cc1ccccc1)NC(=O)[C@H](C(C)C)N1CCCNC1=O` [Lopinavir]: in the data set on SARS-CoV-2 [1] (setting [4]), the inhibition at 25 µM came to 99.01 ± 0.02%. Further, the inhibition at 50 µM with SARS-CoV-2 [1] (setting [5]) is 98.2 ± 2.11%. Besides, the IC50 in the data set on SARS-CoV-2 [1] (setting [6]) was determined as 12.6 µM; in the data set on SARS-CoV-2 [1] (read-out: SARS-CoV-2 virus 50% inhibitory ability (IC50 value), Vero cells dosed while being infected, 24 h, compounds), 14.5 µM. The “SARS-CoV-2 virus inhibitory ability (%, average ± standard deviation)” value with SARS-CoV-2 [1] (concentration 0.10 uM, Vero cells, 24 h, 0.1 µM) was 3.14 ± 0.24% and −0.2 ± 4.23%; with SARS-CoV-2 [1] (concentration 0.20 uM, Vero cells, 24 h, 0.2 µM) it was 0.2 ± 2.44%; in the data set with SARS-CoV-2 [1] (concentration 0.39 uM, Vero cells, 24 h, 0.39 µM), −0.60 ± 2.75% and 1.2 ± 5.71%; in the data set with SARS-CoV-2 [1] (concentration 1.56 uM, Vero cells, 24 h, 1.56 µM), 0.79 ± 3.76% and 1.7 ± 0.27%; with SARS-CoV-2 [1] (concentration 3.13 uM, Vero cells, 24 h, 3.13 µM), 3.03 ± 0.67% and 0.2 ± 6.78%; in the data set with SARS-CoV-2 [1] (concentration 6.25 uM, Vero cells, 24 h, 6.25 µM), 3.38 ± 5.94% and −0.1 ± 1.27%. For the same compound, the “SARS-CoV-2 virus inhibitory ability (%, average ± standard deviation)” value in the data set with SARS-CoV-2 [1] (concentration 25 uM, Vero cells, 24 h, 25 µM) was determined as 98.6 ± 0.28%; in the data set on SARS-CoV-2 [1] (concentration 50 uM, Vero cells, 24 h, 50 µM), 99.6 ± 0.57%.
For the compound `COc1cc2c(OC)c3c(c(-c4ccc5c(c4)OCO5)c2cc1OC)C(=O)OC3` [Justicidin-A, 9-benzo[1,3]dioxol-5-yl-4,6,7-trimethoxy-3H -naphtho[2,3-c]furan-1-one], the IC50 in the data set with SARS-CoV-2 [1] (setting [7]) is 0.159 µM. In the data set on SARS-CoV-2 [1] (Severe acute respiratory syndrome coronavirus 2, concentration 0.10 uM, Vero cells, 24 h, read-out: SARS-CoV-2 virus inhibitory ability (%, average ± standard deviation)), the inhibition at 0.1 µM is 25.7 ± 12.3%. Besides, in the data set with SARS-CoV-2 [1] (Severe acute respiratory syndrome coronavirus 2, concentration 0.20 uM, Vero cells, 24 h, read-out: SARS-CoV-2 virus inhibitory ability (%, average ± standard deviation)), the inhibition at 0.2 µM was determined as 75.3 ± 4.37%. The inhibition at 0.39 µM in the data set with SARS-CoV-2 [1] (Severe acute respiratory syndrome coronavirus 2, concentration 0.39 uM, Vero cells, 24 h, read-out: SARS-CoV-2 virus inhibitory ability (%, average ± standard deviation)) was 95.2 ± 1.48%. Moreover, the inhibition at […] in the data set on SARS-CoV-2 [1] (Severe acute respiratory syndrome coronavirus 2, concentration 0.78 uM, Vero cells, 24 h, read-out: SARS-CoV-2 virus inhibitory ability (%, average ± standard deviation)) was 99 ± 1.58%. Moreover, the inhibition at 1.56 µM with SARS-CoV-2 [1] (Severe acute respiratory syndrome coronavirus 2, concentration 1.56 uM, Vero cells, 24 h, read-out: SARS-CoV-2 virus inhibitory ability (%, average ± standard deviation)) came out at 99 ± 0.57%. Besides, in the data set on SARS-CoV-2 [1] (Severe acute respiratory syndrome coronavirus 2, concentration 3.13 uM, Vero cells, 24 h, read-out: SARS-CoV-2 virus inhibitory ability (%, average ± standard deviation)), the inhibition at 3.13 µM is 100 ± 0.36%. The inhibition at 6.25 µM with SARS-CoV-2 [1] (Severe acute respiratory syndrome coronavirus 2, concentration 6.25 uM, Vero cells, 24 h, read-out: SARS-CoV-2 virus inhibitory ability (%, average ± standard deviation)) was 99.6 ± 0.16%. In the data set on SARS-CoV-2 [1] (Severe acute respiratory syndrome coronavirus 2, concentration 12.5 uM, Vero cells, 24 h, read-out: SARS-CoV-2 virus inhibitory ability (%, average ± standard deviation)), the inhibition at 12.5 µM was determined as 98.1 ± 1.47%. The inhibition at 25 µM in the data set on SARS-CoV-2 [1] (Severe acute respiratory syndrome coronavirus 2, concentration 25 uM, Vero cells, 24 h, read-out: SARS-CoV-2 virus inhibitory ability (%, average ± standard deviation)) came to 95.3 ± 0.61%. Besides, in the data set with SARS-CoV-2 [1] (Severe acute respiratory syndrome coronavirus 2, concentration 50 uM, Vero cells, 24 h, read-out: SARS-CoV-2 virus inhibitory ability (%, average ± standard deviation)), the inhibition at 50 µM is 93.3 ± 1.69%. In addition, the “SARS-CoV-2 inhibitory ability (in words)” value in the data set with SARS-CoV-2 [1] (Vero cells, comparison at IC50 values with Remdesivir, Lopinavir and Chloroquine) is listed as “remarkably more excellent”. In addition, the “Cell viability (%, average ± standard deviation)” value in the data set with Vero cell lines (concentration 0.20 uM) was found to be 97.6 ± 0.61%; in the data set with Vero cell lines (concentration 0.39 uM), 101.3 ± 1.55%; with Vero cell lines (concentration 1.56 uM), 97.4 ± 0.09%; with Vero cell lines (concentration 3.13 uM) it was 98.4 ± 1.93%; in the data set on Vero cell lines (concentration 6.25 uM) it was 96.9 ± 3.33%; in the data set on Vero cell lines (concentration 12.5 uM), 96.5 ± 0.20%. Moreover, the “Cell viability (%, average ± standard deviation)” value was 99.5 ± 1.81% in the data set with Vero cell lines (concentration 25 uM) and 98.0 ± 3.04% in the data set on Vero cell lines (concentration 50 uM).
By CC50 is commonly meant the concentration giving 50% cytotoxicity. Turning to `CCN(CCO)CCCC(C)Nc1ccnc2cc(Cl)ccc12` (centres unmarked) [Hydroxy-chloroquine, reference compound], the IC50 in the data set on SARS-CoV-2 [2] amounted to 9.33 µM. This compound also returned a half-maximal cytotoxic concentration (CC50) at 48 h in data set [3] of 160 µM.
Consider `CCN(CC)CCCC(C)Nc1ccnc2cc(Cl)ccc12` (centres unmarked) [Chloroquine], for which the inhibition at 0.1 µM in the data set with SARS-CoV-2 [1] (Severe acute respiratory syndrome coronavirus 2, Vero, 24 h, concentration 0.10 uM, Vero cells, 24 h, read-out: SARS-CoV-2 virus inhibitory ability (%, average ± standard deviation)) was -2.83 ± 2.09%. Besides, the inhibition at 0.2 µM in the data set with SARS-CoV-2 [1] (Severe acute respiratory syndrome coronavirus 2, Vero, 24 h, concentration 0.20 uM, Vero cells, 24 h, read-out: SARS-CoV-2 virus inhibitory ability (%, average ± standard deviation)) was -4.26 ± 0.03%. Moreover, the inhibition at 0.39 µM with SARS-CoV-2 [1] (Severe acute respiratory syndrome coronavirus 2, Vero, 24 h, concentration 0.39 uM, Vero cells, 24 h, read-out: SARS-CoV-2 virus inhibitory ability (%, average ± standard deviation)) is -2.86 ± 0.21%. Moreover, the inhibition at 1.56 µM in the data set on SARS-CoV-2 [1] (Severe acute respiratory syndrome coronavirus 2, Vero, 24 h, concentration 1.56 uM, Vero cells, 24 h, read-out: SARS-CoV-2 virus inhibitory ability (%, average ± standard deviation)) turned out to be 3.52 ± 6.42%. Further, the inhibition at 3.13 µM in the data set with SARS-CoV-2 [1] (Severe acute respiratory syndrome coronavirus 2, Vero, 24 h, concentration 3.13 uM, Vero cells, 24 h, read-out: SARS-CoV-2 virus inhibitory ability (%, average ± standard deviation)) amounted to 61.1 ± 7.72%. For the same compound, the inhibition at 6.25 µM in the data set with SARS-CoV-2 [1] (Severe acute respiratory syndrome coronavirus 2, Vero, 24 h, concentration 6.25 uM, Vero cells, 24 h, read-out: SARS-CoV-2 virus inhibitory ability (%, average ± standard deviation)) was 97.7 ± 0.16%. Further, in the data set with SARS-CoV-2 [1] (Severe acute respiratory syndrome coronavirus 2, Vero, 24 h, concentration 12.5 uM, Vero cells, 24 h, read-out: SARS-CoV-2 virus inhibitory ability (%, average ± standard deviation)), the inhibition at 12.5 µM stood at 99.31 ± 0.39%. Also, the inhibition at 25 µM in the data set on SARS-CoV-2 [1] (setting [4]) amounted to 98.93 ± 0.07%. In the data set on SARS-CoV-2 [1] (setting [5]), the inhibition at 50 µM was 99.4 ± 1%. For the same compound, the IC50 with SARS-CoV-2 [1] (setting [6]) is 8.78 µM. In addition, the “Cell viability (%, average ± standard deviation)” value with Vero cell lines (concentration 0.10 uM) stood at 83.10 ± 6.34%; in the data set on Vero cell lines (concentration 0.20 uM) it was 87.70 ± 0.37%; in the data set with Vero cell lines (concentration 0.39 uM), 83.14 ± 3.44%; with Vero cell lines (concentration 1.56 uM), 89.11 ± 4.21%; in the data set on Vero cell lines (concentration 3.13 uM), 97.41 ± 1.82%; in the data set on Vero cell lines (concentration 6.25 uM), 90.84 ± 3.72%. The results for the “Cell viability (%, average ± standard deviation)” value with Vero cell lines (concentration 12.5 uM), in the data set with Vero cell lines (concentration 25 uM) and in the data set on Vero cell lines (concentration 50 uM) were 83.63 ± 0.73%, 71.29 ± 6.06% and 59.69 ± 1.38%, respectively.
Regarding `CCC(CC)COC(=O)[C@H](C)N[P@](=O)(OC[C@H]1O[C@@](C#N)(c2ccc3c(N)ncnn23)[C@H](O)[C@@H]1O)Oc1ccccc1` [Remdesivir], in the data set on SARS-CoV-2 [1] (Severe acute respiratory syndrome coronavirus 2, Vero, 24 h, concentration 6.25 uM, read-out: SARS-CoV-2 virus inhibitory ability (%, average ± standard deviation)), the inhibition at 6.25 µM amounted to 10.8 ± 43.8%. Further, the inhibition at 12.5 µM with SARS-CoV-2 [1] (Severe acute respiratory syndrome coronavirus 2, Vero, 24 h, concentration 12.5 uM, read-out: SARS-CoV-2 virus inhibitory ability (%, average ± standard deviation)) is 63.6 ± 1.23%. In addition, the inhibition at 25 µM with SARS-CoV-2 [1] (Severe acute respiratory syndrome coronavirus 2, Vero, 24 h, concentration 25 uM, read-out: SARS-CoV-2 virus inhibitory ability (%, average ± standard deviation)) came out at 84.6 ± 2.21%. For the same compound, the inhibition at 50 µM with SARS-CoV-2 [1] (Severe acute respiratory syndrome coronavirus 2, Vero, 24 h, concentration 50 uM, read-out: SARS-CoV-2 virus inhibitory ability (%, average ± standard deviation)) amounted to 94.38 ± 0.41%. Besides, the IC50 in the data set with SARS-CoV-2 [1] (setting [7]) was 10.8 µM; in the data set with SARS-CoV-2 [1] (read-out: SARS-CoV-2 virus 50% inhibitory ability (IC50 value)) it was 12.7 µM. The “SARS-CoV-2 virus inhibitory ability (%, average ± standard deviation)” value in the data set on SARS-CoV-2 [1] (concentration 0.10 uM, 0.1 µM) was −2.24 ± 7.45%; in the data set on SARS-CoV-2 [1] (concentration 0.20 uM, 0.2 µM), 2.60 ± 1.90% and 7.2 ± 0.17%; with SARS-CoV-2 [1] (concentration 0.39 uM, 0.39 µM), −1.29 ± 2.86% and 4.8 ± 4.21%; in the data set on SARS-CoV-2 [1] (concentration 1.56 uM, 1.56 µM), 0.65 ± 5.05% and 7.4 ± 1.96%; in the data set with SARS-CoV-2 [1] (concentration 3.13 uM, 3.13 µM), 5.89 ± 3.28% and 11.8 ± 0.80%; in the data set on SARS-CoV-2 [1] (concentration 6.25 uM, 6.25 µM) it was 16.2 ± 2.56%. For the same compound, the “SARS-CoV-2 virus inhibitory ability (%, average ± standard deviation)” value in the data set with SARS-CoV-2 [1] (concentration 12.5 uM, 12.5 µM) was 47.9 ± 0.01%; in the data set with SARS-CoV-2 [1] (concentration 25 uM, 25 µM), 82.1 ± 1.40%; in the data set on SARS-CoV-2 [1] (concentration 50 uM, 50 µM), 93.5 ± 1.80%.

Values taken from US20230143345A1, “PHARMACEUTICAL COMPOSITION FOR PREVENTION OR TREATMENT OF DISEASES CAUSED BY SARS-COV-2” (DONG WHA PHARM. CO., LTD., priority 2020, published 2023).
